Data as given in patent publication US10869931B2, “Polyethylene glycol-modified angiogenesis inhibitor HM-1 and application thereof” (NANJING ANJI BIOLOGICAL TECHNOLOGY CO.,LTD, priority 2016, dated 2020).
Marks after values point to notes of the source that are not given here. Where no end group is shown, it is not given here.

Legend:
Brain tumor cells = assay: MTT proliferation inhibition, brain tumor cells; assay type: cell-based, human; set-up: concentration or dose not given beside the values; conditions: 48 h
Procedure, shortened: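 Tumour cells plated at 2×10^4 cells/mL, attached overnight, then exposed to dilutions of mPEG-HM-1 for 48 h at 37 °C, 5% CO2. MTT added 4 h, formazan dissolved in DMSO, absorbance 570/630 nm; growth inhibition = 1 − treated/untreated, three independent repeats, mean±SD.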

[1] = test system: human retinal vascular endothelial cells (HRCEC); assay: MTT proliferation of human retinal vascular endothelial cells; assay type: cell-based; conditions: 48 h; for Inhibition rate: HRCEC proliferation; for A570 nm-A630 nm: HRCEC; for A570 nm-A630 nm / inhibition rate of HRCEC proliferation: MTT
Procedure, shortened: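 HRCEC seeded at 3.0×10^4 cells/mL, adhered overnight, then exposed to polypeptide dilutions for 48 h at 37° C, 5% CO2; medium-only blank control. MTT added for 4 h, formazan dissolved in DMSO. PI (%)=1−administration group/negative group; three independent repeats, mean±SD, t test.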

[2] = test system: corneal neovascularization in BALB/c mice; assay: Alkali-burn corneal neovascularization in BALB/c mice (CD31 microvessel density); assay type: in vivo, mouse; conditions: for inhibition rate of corneal neovascularization: BALB/c mice, alkali burn, intravitreal injection once a day for 1 week; for Inhibition rate: corneal microvessel density vs control; for Inhibition rate / MVD: day 14 after alkali burn, intravitreal once a day for 1 week; for MVD: microvessel density (CD31) of cornea
Text: (1) Preparation of corneal neovascularization model induced by alkali burn in BALB/c mice: mice were randomly grouped and labeled as mPEG-HM-1 experimental group and control group, 5 […] in each group, respectively, was given mPEG-HM-1 and saline by Intravitreal injection after alkali burn, once a day for 1 week. The inflammatory reaction and neovascularization of the cornea were observed under slit lamp microscope at 1 d, 7 d, and 14 d after alkali burn. On the 14th day after alkali burn, the corneal neovascularization was recorded under the slit lamp microscope in the anterior segment of the eye. All the mice were euthanized by cervical dislocation and the eyeballs were removed, washed with saline to rid of blood, and was fixed in 4% paraformaldehyde for 1.5 h, dehydrated in PBS containing 30% sucrose overnight, embedded in OCT frozen section embedding agent, stored in −80° C. refrigerator, frozen section 8 μm, and underwent immunocytochemical detection of CD31 expression. (2) Quantitative measurement of corneal tissue microvessel density: Microvessel density (MVD) is an indicator for evaluating angiogenesis. Vascular endothelial cells were labeled with anti-CD31 antibody by immunohistochemistry, and the number of microvessels per unit area was counted to measure the degree of neovascularization. Standards for counting microvessels: Microscopically, the endothelial cells or cell clusters that are clearly demarcated from adjacent tissues in the corneal tissue and stained brown or brown are counted in the neovascularization. The number of new blood vessels in the whole section was counted under a 10×20 microscope. After the corneal tissue was photographed, the entire corneal tissue area was calculated by image processing software Image J, and the neovascular density of the whole section was determined. The test was repeated 3 times independently. The results obtained by the test were expressed as mean±SD, and a statistical T test was performed. *P<0.05 was a significant difference, and **P<0.01 was a very significant difference.

[3] = test system: xylene-induced ear swelling in Kunming mice; assay: Xylene-induced ear swelling in mice; assay type: in vivo, mouse; conditions: for Inhibition rate: ear swelling vs control
Procedure, shortened: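 Kunming mice were dosed once daily for 5 days (aspirin 200 mg/kg as positive control, saline as blank). One hour after the last dose, xylene was applied to the right ear, with the left ear as untreated reference. Ear punches were weighed 2 h later; swelling degree = right − left weight, rate = degree/left weight ×100%.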

[4] = test system: collagen induced arthritis (CIA) in DBA/1 mice; assay: Collagen-induced mouse arthritis (CIA) model; assay type: in vivo; conditions: for Joint swelling / Left and right paw swelling / Clinical score: CIA DBA/1 mice; for Clinical score: maximum score 16; for limbs score (in words): CIA mice, subcutaneous, once every three days, vs model control group
[5] = 10 mg/kg once daily for 5 days, 2 h after xylene
[6] = 20 mg/kg once daily for 5 days, 2 h after xylene
[7] = 40 mg/kg once daily for 5 days, 2 h after xylene
[8] = 20 mg/kg subcutaneous from day 30 of modeling
[9] = 80 mg/kg once daily for 5 days, 2 h after xylene
[10] = 40 mg/kg subcutaneous from day 30 of modeling
[11] = 160 mg/kg once daily for 5 days, 2 h after xylene
[12] = 160 mg/kg once daily for 5 days
[13] = 80 mg/kg subcutaneous from day 30 of modeling
[14] = 10 mg/kg subcutaneous from day 30 of modeling

| Substance | rate of growth inhibition (Brain tumor cells) [%] | Inhibition rate ([1]; 40 μg/mL) | A570 nm-A630 nm ([1]; 40 μg/mL) | Inhibition rate ([1]; 60 μg/mL) | A570 nm-A630 nm ([1]; 60 μg/mL) | Inhibition rate ([1]; 80 μg/mL) | A570 nm-A630 nm ([1]; 80 μg/mL) | Inhibition rate [2] [%] | MVD [2] | Swelling [3, 5] | Inhibition rate ([3]; 10 mg/kg once daily for 5 days) [%] | Swelling [3, 6] | Inhibition rate ([3]; 20 mg/kg once daily for 5 days) [%] | Swelling [3, 7] | Inhibition rate ([3]; 40 mg/kg once daily for 5 days) [%] | Inhibition rate ([1]; 100 μg/mL) | A570 nm-A630 nm ([1]; 100 μg/mL) | Swelling [3, 9] | Inhibition rate ([3]; 80 mg/kg once daily for 5 days) [%] | further results |
| --- | --- | --- | --- | --- | --- | --- | --- | --- | --- | --- | --- | --- | --- | --- | --- | --- | --- | --- | --- | --- |
| mPEG-SC10k-Arg-Gly-Ala-Asp-Arg-Ala-Gly-Gly-Gly-Gly-Arg-Gly-Asp ({mPEG‑SC 10 kDa}-RGADRAGGGGRGD) [mPEG-SC10k-HM-1] | 50.21 ± 12.19 | 46.44%* | 0.7020 ± 0.07964 | 55.39%** | 0.5847 ± 0.07356 | 68.84%* | 0.4084 ± 0.07298 | 52.17 | 31.92 ± 3.648** | 5.49 ± 0.23 mg | 10.55 | 4.83 ± 0.32* mg | 21.37 | 3.98 ± 0.21** mg | 35.20 | – | – | – | – | inhibition rate of HRCEC proliferation ([1]; 80 μg/mL): 68.84%; inhibition rate of corneal neovascularization [2]: 52.17%; Joint swelling [4, 8]: 0.79 ± 0.13 mm; Left and right paw swelling [4, 8]: 0.77 ± 0.12 mm; Clinical score [4, 8]: 9.06 ± 1.24 |
| mPEG-SC20k-Arg-Gly-Ala-Asp-Arg-Ala-Gly-Gly-Gly-Gly-Arg-Gly-Asp ({mPEG‑SC 20 kDa}-RGADRAGGGGRGD) [mPEG-SC20k-HM-1] | 55.56 ± 12.13 | – | – | 45.71%* | 0.7116 ± 0.07539 | 53.92%** | 0.6040 ± 0.06996 | 46.53 | 35.68 ± 4.842** | – | – | 5.38 ± 0.17 mg | 12.36 | 4.69 ± 0.79* mg | 23.67 | 66.64%* | 0.4372 ± 0.0721 | 3.77 ± 0.33** mg | 38.58 | Joint swelling [4, 10]: 0.76 ± 0.12 mm; Left and right paw swelling [4, 10]: 0.72 ± 0.15 mm; Clinical score [4, 10]: 9.00 ± 1.25; limbs score (in words) [4]: significantly lower than that of the model control group |
| mPEG-SC40k-Arg-Gly-Ala-Asp-Arg-Ala-Gly-Gly-Gly-Gly-Arg-Gly-Asp ({mPEG‑SC 40 kDa}-RGADRAGGGGRGD) [mPEG-SC40k-HM-1] | 52.89 ± 15.41 | – | – | – | – | 42.27%* | 0.7567 ± 0.07109 | 43.48 | 37.72 ± 4.153** | – | – | – | – | 5.51 ± 0.13 mg | 10.27 | 53.16%** | 0.6139 ± 0.0712 | 4.76 ± 0.72* mg | 22.42 | Inhibition rate ([1]; 120 μg/mL): 63.68%*; A570 nm-A630 nm ([1]; 120 μg/mL): 0.4760 ± 0.07009; Swelling [3, 11]: 3.87 ± 0.27** mg; Inhibition rate [3, 12]: 37.01%; Joint swelling [4, 13]: 0.80 ± 0.16 mm; Left and right paw swelling [4, 13]: 0.80 ± 0.16 mm; Clinical score [4, 13]: 9.09 ± 1.33 |
| mPEG-bALD5k-Arg-Gly-Ala-Asp-Arg-Ala-Gly-Gly-Gly-Gly-Arg-Gly-Asp ({mPEG‑bALD 5 kDa}-RGADRAGGGGRGD) [mPEG-bALD5k-HM-1] | 45.11 ± 12.09 | 50.48%** | 0.6594 ± 0.08003 | 62.77%* | 04958 ± 0.07902 | – | – | 43.10 | 37.97 ± 3.914* | 4.83 ± 0.30* mg | 20.47 | 4.18 ± 0.25** mg | 31.08 | – | – | – | – | – | – | Inhibition rate ([1]; 20 μg/mL): 41.82%*; A570 nm-A630 nm ([1]; 20 μg/mL): 0.7747 ± 0.08752; Inhibition rate ([3]; 5 mg/kg once daily for 5 days): 10.36%; Swelling ([3]; 5 mg/kg once daily for 5 days, right minus left ear piece weight 2 h after xylene): 5.44 ± 0.19 mg; Joint swelling [4, 14]: 0.73 ± 0.15 mm; Left and right paw swelling [4, 14]: 0.74 ± 0.13 mm; Clinical score [4, 14]: 8.98 ± 1.25 |
| mPEG-bALD10k-Arg-Gly-Ala-Asp-Arg-Ala-Gly-Gly-Gly-Gly-Arg-Gly-Asp ({mPEG‑bALD 10 kDa}-RGADRAGGGGRGD) [mPEG-bALD10k-HM-1] | 59.37 ± 14.52 | 47.95%* | 0.6931 ± 0.07754 | 57.43%** | 0.5669 ± 0.07609 | 75.19%* | 0.3304 ± 0.07354 | 52.03 | 32.01 ± 5.738** | 5.37 ± 0.14 mg | 11.54 | 4.64 ± 0.72* mg | 23.63 | 3.59 ± 0.35** mg | 40.88 | – | – | – | – | inhibition rate of HRCEC proliferation ([1]; 80 μg/mL): 75.19%; inhibition rate of corneal neovascularization [2]: 52.03%; Joint swelling [4, 8]: 0.74 ± 0.12 mm; Left and right paw swelling [4, 8]: 0.71 ± 0.12 mm; Clinical score [4, 8]: 8.69 ± 1.38; limbs score (in words) [4]: significantly lower than that of the model control group |
| mPEG-bALD20k-Arg-Gly-Ala-Asp-Arg-Ala-Gly-Gly-Gly-Gly-Arg-Gly-Asp ({mPEG‑bALD 20 kDa}-RGADRAGGGGRGD) [mPEG-bALD20k-HM-1] | 54.77 ± 13.43 | – | – | 47.53%* | 0.6987 ± 0.07838 | 57.32%** | 0.5683 ± 0.07055 | 47.84 | 34.81 ± 6.817** | – | – | 5.03 ± 0.18 mg | 17.13 | 4.64 ± 0.34* mg | 23.62 | 69.12%* | 0.4112 ± 0.07405 | 3.78 ± 0.27** mg | 37.76 | Joint swelling [4, 10]: 0.73 ± 0.15 mm; Left and right paw swelling [4, 10]: 0.75 ± 0.11 mm; Clinical score [4, 10]: 8.67 ± 1.32 |
| mPEG-bALD40k-Arg-Gly-Ala-Asp-Arg-Ala-Gly-Gly-Gly-Gly-Arg-Gly-Asp ({mPEG‑bALD 40 kDa}-RGADRAGGGGRGD) [mPEG-bALD40k-HM-1] | 51.89 ± 11.91 | – | – | – | – | 44.81%* | 0.7349 ± 0.07082 | 45.27 | 36.52 ± 6.537** | – | – | – | – | 5.25 ± 0.12 mg | 13.45 | 55.03%** | 0.5988 ± 0.07291 | 4.68 ± 0.72* mg | 22.94 | Inhibition rate ([1]; 120 μg/mL): 63.12%*; A570 nm-A630 nm ([1]; 120 μg/mL): 0.4911 ± 0.07534; Swelling [3, 11]: 4.06 ± 0.26** mg; Inhibition rate [3, 12]: 33.09%; Joint swelling [4, 13]: 0.78 ± 0.16 mm; Left and right paw swelling [4, 13]: 0.79 ± 0.13 mm; Clinical score [4, 13]: 9.01 ± 1.45 |
